A short description of series [1]: “free chlorine” (Hach Method 8021) and “total chlorine” (Hach Method 8167) in dosed simulated cooling water, Example 1. Format: physicochemical. The note with it: simulated cooling water pH 9.1, 38° C. The text has this:
The standard tests for determination of “free chlorine” and “total chlorine” are based on classical test procedures devised by Palin in 1974. See A. T. Palin, “Analytical Control of Water Disinfection With Special Reference to Differential DPD Methods For Chlorine, Chlorine Dioxide, Bromine, Iodine and Ozone”, J. Inst. Water Eng., 1974, 28, 139. While there are various modernized versions of the Palin procedures, the version of the tests for “free chlorine” and “total chlorine” used and to be used as the standard in connection with this invention, are fully described in Hach Water Analysis Handbook, 3rd edition, copyright 1997. The procedure for “free chlorine” is identified in that publication as Method 8021 appearing on page 335, whereas the procedure for “total chlorine” is Method 8167 appearing at page 379. Briefly, the “free chlorine” test involves introducing to the halogenated water a powder comprising DPD indicator powder and a buffer. “Free chlorine” present in the water reacts with the DPD indicator to produce a red to pink coloration. The intensity of the coloration depends upon the concentration of “free chlorine” species present in the sample. This intensity is measured by a calorimeter calibrated to transform the intensity reading into a “free chlorine” value in terms of mg/L Cl2. Similarly, the “total chlorine” test also involves use of DPD indicator and buffer. In this case, KI is present with the DPD and buffer whereby the halogen species present, including nitrogen-combined halogen, reacts with KI to yield iodine species which turn the DPD indicator to red/pink. The intensity of this coloration depends upon the sum of the “free chlorine” species and all other halogen species present in the sample. Consequently, this coloration is transformed by the colorimeter into a “total chlorine” value expressed as mg/L Cl2.
DBDAH and BCDMH Test Procedure • 1. To determine the amount of species present in the water which respond to the “free chlorine” and “total chlorine” tests, the water sample should be analyzed within a few minutes of being taken, and preferably immediately upon being taken. • 2. Hach Method 8021 for testing the amount of species present in the water sample which respond to the “free chlorine” test involves use of the Hach Model DR 2010 calorimeter. The stored program number for chlorine determinations is recalled by keying in “80” on the keyboard, followed by setting the absorbance wavelength to 530 nm by rotating the dial on the side of the instrument. Two identical sample cells are filled to the 10 mL mark with the water under investigation. One of the cells is arbitrarily chosen to be the blank. Using the 10 mL cell riser, this is admitted to the sample compartment of the Hach Model DR 2010, and the shield is closed to prevent stray light effects. Then the ZERO key is depressed. After a few seconds, the display registers 0.00 mg/L Cl2. To second cell, the contents of a DPD Free Chlorine Powder Pillow are added. This is shaken for 10-20 seconds to mix, as the development of a pink-red color indicates the presence of species in the water which respond positively to the DPD test reagent. Within one minute of adding the DPD “free chlorine” reagent to the 10 mL of water in the sample cell, the blank cell used to zero the instrument is removed from the cell compartment of the Hach Model DR 2010 and replaced with the test sample to which the DPD “free chlorine” test reagent was added. The light shield is then closed as was done for the blank, and the READ key is depressed. The result, in mg/L Cl2 is shown on the display within a few seconds. This is the “free chlorine” level of the water sample under investigation. • 3. Hach Method 8167 for testing the amount of species present in the water sample which respond to the “total chlorine” test involves use of the Hach Model DR 2010 calorimeter. […]

The nature of series [2]: Iodometric titration of clear saturated stock solutions. The conditions noted are these: 1 gram powder slurried in 100 mL deionized water, stirred 20 minutes, filtered. Format: physicochemical. How it is done:
Stock solutions of DBDMH and of BCDMH were prepared by slurrying 1 gram of the respective powders in 100 mL of deionized water. After stirring for 20 minutes, the insolubles were filtered to yield clear saturated stock solutions of DBDMH and BCDMH, respectively. Iodometric titration of the stock solutions using the potassium iodide-sodium thiosulfate method indicated the DBDMH solution contained 580 mg/L (as total chlorine), and the BCDMH solution contained 1100 mg/L (as total chlorine).

The next series has as its system heterotrophic bacteria. Put plainly: Cooling tower field trial, Example 2: heterotrophic bacteria plate counts. The source says:
The effectiveness of DBDMH and of BCDMH in microbiological control in cooling tower water was investigated in comparative tests. The cooling tower consisted of two 500-ton units in a crossflow design. The total system-contained volume was 14,000 gallons, and the tower contained medium efficiency film fill. Water from the tower cooled the coils of two 300-ton air conditioners (chillers). The tower typically operated at a pH of about 9.1 and 4 cycles of concentration. Blowdown was controlled by conductivity. Make-up water consisted of softened city water and which was of good quality. The make-up water was very low in calcium (<10 mg/L) but high in pH (8.7). The alkalinity was 145 mg/L (as CaCO3), and the silica level was 28 mg/L. The tower employed a conventional polyphosphate/molybdate/phosphonate program to provide corrosion and deposit control.
The BCDMH (20 lbs) was introduced to the water using 20-gram, 1-inch tablets charged to a solid halogen feeder (Neptune model BT-40, Neptune Chemical Pump Co., Inc., Lansdale, Pa.). Before each dose, the cooling tower water was sampled and enumerated for heterotrophic bacteria plate counts. Then the tower was slug dosed three times a week with BCDMH. Slug dosing was accomplished by diverting through the feeder containing the tablets a sidestream of the recirculating water for about 1 to 5 hours until a “free chlorine” dose of about 0.5 mg/L (as “free chlorine”) was obtained. The “total chlorine” dose was measured at the same time. After each dose the cooling water was sampled and enumerated for heterotrophic bacteria plate counts. As necessary, the feeder was replenished with more BCDMH tablets.
For example, before the biocide dose the bacteria levels in the bulk water ranged from 10^5 to 10^4 CFUs/mL. After the biocide dose the bacteria levels in the bulk water were reduced to 10^4 to 10^3.
After emptying the feeder of BCDMH tablets, 20 lbs of DBDMH granules was charged into the feeder. Thereupon the same procedure as described above for the BCDMH was carried out except for the fact that is was unnecessary to add any additional DBDMH to the feeder during the 30-day test period. In fact, the total weight of DBDMH consumed during the test was only 7 lbs.

Series [3] in a line: Storage of tablets at 50° C. for 30 days, titration of active bromine, Example 24. Format: physicochemical. The source says: 1,3-Dibromo-5,5-dimethylhydantoin was blended with micronized polyethylene wax (MPP-611) such that the blend contained 3 wt % of the wax. A sample of the blend (5 g) was introduced to a die made from Hastelloy® C alloy, and compacted to a pressure of 5000 psi. Three more samples (5 g each) were compacted in the same manner, and each time a single tablet was extracted from the die after the pressure had been released. In each case, before filling the die, its interior surfaces were lightly dusted with micronized polypropylene wax to serve as a lubricant. The tablets were manually broken into two equally-sized pieces. One half of each tablet was crushed into a powder with a mortar and pestle, and the powder was titrated to determine its wt % of active bromine. The other half of each tablet was placed in a sealed glass vial and placed in an oven at 50° C. After 30 days, the samples were removed from the oven, ground up, and titrated to determine its wt % of active bromine. For comparative purposes, a control sample of commercially produced 1,3-dibromo-5,5-dimethylhydantoin having an average particle size of about 64.5μ (containing no micronized polyethylene wax) was subjected to the same operations.
Table 16 lists the results obtained for four samples of 1,3-dibromo-5,5-dimethylhydantoin/3 wt % micronized polyethylene wax blends, along with the control sample containing no additive.

The mark [4] stands for this setting: dosed to 1 mg/L as total chlorine, Time 0 hr.
Setting [5] is: Time 0.5 hr, percentage of Time 0 value.
Where [6] appears, read: Time 1 hr, percentage of Time 0 value.
Where [7] appears, read: Time 1.5 hr, percentage of Time 0 value.
[8] abbreviates: Time 2 hr, percentage of Time 0 value.
The mark [9] stands for this setting: Time 3 hr, percentage of Time 0 value.
Where [10] appears, read: Time 4 hr, percentage of Time 0 value.
Setting [11] is: Time 5 hr, percentage of Time 0 value.
[12] abbreviates: Time 6 hr, percentage of Time 0 value.

Each structure is given as a SMILES string.

The values below come from patent US7579018B2, “Microbiological control in aqueous systems” (Albemarle Corporation, priority 2000, dated 2009).

Take `CC1(C)C(=O)N(Cl)C(=O)N1Br` [BCDMH, N,N′-bromochloro-5,5-dimethylhydantoin, reference compound]: the “Free Cl2” value is 23.1 in series [1] (setting [4]); 25.6% in series [1] (setting [5]); 23.1% in series [1] (setting [6]); 17.9% in series [1] (setting [7]); 16.6% in series [1] (setting [8]); 16.6% in series [1] (setting [9]). The “Free Cl2” value in series [1] (setting [10]) is given as 30.7%; in series [1] (setting [11]), 15.4%; in series [1] (setting [12]) it was 10.2%. Moreover, the “Total Cl2” value is listed as 100 in series [1] (setting [4]); 104% in series [1] (setting [5]); 100% in series [1] (setting [6]); 92.3% in series [1] (setting [7]); 88.5% in series [1] (setting [8]); 88.5% in series [1] (setting [9]). The “Total Cl2” value is 79.5% in series [1] (setting [10]), 76.9% in series [1] (setting [11]) and 71% in series [1] (setting [12]). Besides, the “% hydrolysis to Free Cl2” value is recorded as 23.1% in series [1] (Time 0 hr); 24.7% in series [1] (Time 0.5 hr); 23.1% in series [1] (Time 1 hr); 19.4% in series [1] (Time 1.5 hr); 18.8% in series [1] (Time 2 hr); 18.8% in series [1] (Time 3 hr). Further, the “% hydrolysis to Free Cl2” value in series [1] (Time 4 hr) is on record as 38.7%; in series [1] (Time 5 hr), 20%; in series [1] (Time 6 hr) it was 14.3%. Besides, the “halogen content of saturated stock solution (as total chlorine)” value in series [2] is on record as 1100 mg/L. In the series with heterotrophic bacteria (biocide dose 0.5 mg/L “free chlorine”), the “average reduction of heterotrophic bacterial levels in the bulk water” value is given as 1 order of magnitude. Also, the “bacteria levels in the bulk water after the biocide dose” value in the series with heterotrophic bacteria (biocide dose 0.5 mg/L “free chlorine”, before dose 10^5 to 10^4 CFUs/mL) was 10^4 to 10^3 CFUs/mL. For the same molecule, the Bacteria reduction in the series on heterotrophic bacteria (slug dose 3 times/week, 0.5 ppm free Cl2, cooling tower water) is reported as 1.5-2 logs.

Turning to `CC1(C)C(=O)N(Br)C(=O)N1Br` [Control, 1,3-dibromo-5,5-dimethylhydantoin], the “Wt % Active Bromine, After 30 days” value in series [3] (sealed glass vial in oven at 50° C., 30 days) came to 55.2 Wt %. In series [3] (tablet half crushed and titrated before storage), the “Wt % Active Bromine, Initial” value is recorded as 55.3 Wt %.
